Source: US10080748B2, “Use of flap inhibitors to reduce neuroinflammation mediated injury in the central nervous system” (Bioscience Pharma Partners, LLC, priority 2014, dated 2018)

Key:
[1] = test system: rats subjected to FPI (TBI model); experiment: T2-weighted MRI brain swelling (edema) 72 hours after TBI (rat FPI); format: in vivo
Procedure: Craniotomy and lateral fluid percussion injury (FPI) were performed using a previously validated and published procedure. Farias S, et al. J. Neurotraum, 26, 1977-1986, 2009; Frey L. C. et al. J. Neurosci. Methods 177, 267-272, 2009. Throughout the specification animals subjected to this protocol are referred to as having a TBI since this treatment protocol is a TBI model. Briefly, rats were anesthetized with 3-5% isoflurane, isosol, VEDCO Inc., St. Joseph, Mo., via nose cone and mounted in a stereotaxic head frame. A 3 millimeter (mm) craniotomy was created and centered at 3 mm caudal to bregma and 3.5 mm left of the sagittal suture, keeping the exposed dura intact. One steel support screw was embedded in the skull on the contralateral side. […] Moistened food pellets were provided after injury, and all animals were monitored daily for well-being and weight changes. […]
For each rat, five slices, 1.2 mm thick, spanning the entire area of injury were used to calculate FPI-related brain swelling. The diameter of the injured, ipsilateral hemisphere was measured from midline to the widest point of the cortex (Fiji/ImageJ, NIH). The difference between the ipsilateral (ipsi) and contralateral (contra) hemisphere diameters was then calculated and normalized to the diameter of the contralateral hemisphere using the formula: {(diameter Ipsi−diameter Contra)/diameter Contra}×100 […]

[2] = test system: rats subjected to FPI (TBI model); experiment: Radial arms water maze (RAWM) after TBI (rat FPI); format: in vivo
Procedure: Craniotomy and lateral fluid percussion injury (FPI) were performed using a previously validated and published procedure. Farias S, et al. J. Neurotraum, 26, 1977-1986, 2009; Frey L. C. et al. J. Neurosci. Methods 177, 267-272, 2009. Throughout the specification animals subjected to this protocol are referred to as having a TBI since this treatment protocol is a TBI model. Briefly, rats were anesthetized with 3-5% isoflurane, isosol, VEDCO Inc., St. Joseph, Mo., via nose cone and mounted in a stereotaxic head frame. A 3 millimeter (mm) craniotomy was created and centered at 3 mm caudal to bregma and 3.5 mm left of the sagittal suture, keeping the exposed dura intact. One steel support screw was embedded in the skull on the contralateral side. A Luer-Lock hub with an inside diameter of 3.5 mm was centered over the craniotomy and bonded to the skull with cyanoacrylate adhesive and capped. Dental acrylic, Snap, Parka, Inc., Edgewood, N.J., was poured around the huh and screw. After the acrylic hardened antibiotic ointment was applied around the cap and the animals were returned to their cages. The next day, approximately 15-20 hours later, animals were anesthetized with isoflurane in an induction chamber, immediately connected to the FPI apparatus, and received a 20 millisecond (ms) pulse of pressurized sterile saline at 2.7 atmospheres (atm) of pressure to simulate a moderate severity impact on the intact dural surface through the craniotomy before awakening from anesthesia. […] All animals received a subcutaneous injection of the analgesic, buprenorphine, 0.05 milligram/kilogram (mg/kg) Buprenex, prior to craniotomy, and subsequent injections every 12 hours for two days. Moistened food pellets were provided after injury, and all animals were monitored daily for well-being and weight changes.
The indole FLAP inhibitor MK-886 was prepared at a dose of 2.5 milligram/milliliter (mg/ml), dissolved in dimethyl sulfoxide (DMSO) and then diluted with 0.9% saline to 10% DMSO. The rats were briefly anesthetized with 3-3.5% isoflurane and either […] at a dose of 6 mg/kg or vehicle was administered intravenously (IV) by tail vein injection. […]
The radial arms water maze (RAWM) consists of six 50 centimeter (cm) radial arms emanating from a circular area in a 160 cm diameter tank of 20.5° C. water, surrounded by 4 walls, each with a unique pattern. […] The start arm for each trial was determined in a pseudorandom fashion with three randomized sequences of the live non-goal arms. […] Videos for each of the 30 trials per animal were analyzed using Topscan (Cleversys Inc.) tracking software for errors and perseverance duration. […]
All data shown are mean+/−standard error of the mean unless otherwise noted. Results were analyzed in SPSS 20 (IBM) or Prism 5.0 (GraphPad). […]

CC(C)c1ccc2c(c1)c(SC(C)(C)C)c(CC(C)(C)C(=O)O)n2Cc1ccc(Cl)cc1 [MK-886, 1-[(4-Chlorophenyl)methyl]-3-[(1,1-dimethylethyl)thio]-α,α-dimethyl-5-(1-methylethyl)-1H-Indole-2-propanoic acid]
normalized brain swelling ([1]; 30 minutes pre-TBI): 4.12+/−0.08%
normalized brain swelling ([1]; 60 minutes post-TBI): 8.98+/−1.0%
initial task learning versus vehicle ([2]; Day 1, 15 swim trials, within sham group or within TBI group): no significant differences
errors per swim, last five swim trials of the reversal task ([2]; TBI animals, injection 30 minutes post-injury, Day 2): 1.26+/−0.700
perseverance for the previous goal arm, swim 1 to swim 3 of reversal task ([2]; TBI rats, injection 30 minutes post-injury, Day 2): spent less time in the previous goal arm by swim 3
errors per swim, last five swim trials of the reversal task ([2]; sham animals, injection 30 minutes post-injury, Day 2): 0.850+/−0.583
